# Assay type: physicochemical
# Settings: HPLC on reversed phase columns, method [a]: pH 2.7, 0.1% formic acid in water / acetonitrile, linear gradient 10% to 95% acetonitrile
row,log P,SMILES
1,3.7^[a],C#Cc1cnc2ccc(C3=NOC(C)(C(=O)NCC[Si](C)(C)C)C3)cc2c1 (centres unmarked) [compound 231]
2,1.22^[a],C#Cc1cnc2ccc(C3=NOC(C)(C(=O)NCC4CCCN4CC)C3)cc2c1 (centres unmarked) [compound 232]
3,1.98^[a],C#CCOc1coc(CNC(=O)C2(C)CC(c3ccc4ncc(C#C)cc4c3)=NO2)cc1=O (centres unmarked) [compound 233]
4,3.25^[a],C#Cc1cnc2ccc(C3=NOC(C)(C(=O)NC4CCCCC4)C3)cc2c1 (centres unmarked) [compound 236]
5,4.06^[a],CC1(C(=O)NCC#Cc2ccc(Cl)cc2)CC(c2ccc3ncc(Br)cc3c2)=NO1 (centres unmarked) [compound 248]
6,4.46^[a],C#Cc1cnc2ccc(C3=NOC(C)(C(=O)NCC4C5CC6CC(C5)CC4C6)C3)cc2c1 (centres unmarked) [compound 250]
7,2.2^[a],C#CCOc1coc(CNC(=O)C2(C)CC(c3ccc4ncc(Br)cc4c3)=NO2)cc1=O (centres unmarked) [compound 251]
8,2.45^[a],C#Cc1cnc2ccc(C3=NOC(C)(C(=O)NCc4ccc5ccccc5n4)C3)cc2c1 (centres unmarked) [compound 253]

# More lines, now with the values behind:
row,SMILES,log P
1,CC1(C(=O)NC2COC2)CC(c2ccc3ncc(Br)cc3c2)=NO1 (centres unmarked) [compound 235],1.99^[a]
2,CC1(C(=O)NC2CCCCC2)CC(c2ccc3ncc(Br)cc3c2)=NO1 (centres unmarked) [compound 239],3.63^[a]
3,CN1C(C)(C)CC(NC(=O)C2(C)CC(c3ccc4ncc(Br)cc4c3)=NO2)CC1(C)C (centres unmarked) [compound 240],1.47^[a]
4,CC1(C(=O)NCC2CCCCC2)CC(c2ccc3ncc(Br)cc3c2)=NO1 (centres unmarked) [compound 249],3.96^[a]
5,CC1(C(=O)NC2CCCCNC2=O)CC(c2ccc3ncc(Br)cc3c2)=NO1 (centres unmarked) [compound 252],2.23^[a]
6,CCCSc1cnc2ccc(C3=NOC(C)(C(=O)NC(C)C)C3)cc2c1 (centres unmarked) [compound 254],3.26^[a]
7,CC(C)NC(=O)C12CCCC1C(c1ccc3ncc(Br)cc3c1)=NO2 (centres unmarked) [compound 255],3.19^[a]

# Same assay, conditions: method [a]: HPLC/LC-MS on reversed phase at pH 2.7, 0.1% formic acid in water / acetonitrile, linear gradient 10% to 95% acetonitrile
row,log P,SMILES
1,1.34^[a],CC1(C(=O)NCc2ccncc2)CC(c2ccc3ncc(Br)cc3c2)=NO1 (centres unmarked) [compound 102]
2,4.16^[a],CC1(C(=O)NCCc2ccc(Cl)cc2Cl)CC(c2ccc3ncc(Br)cc3c2)=NO1 (centres unmarked) [compound 110]
3,3.68^[a],CC1(C(=O)NCCc2ccc(Cl)cc2)CC(c2ccc3ncc(Br)cc3c2)=NO1 (centres unmarked) [compound 111]
4,3.48^[a],CC1(C(=O)NCC2CCOc3ccccc32)CC(c2ccc3ncc(Br)cc3c2)=NO1 (centres unmarked) [compound 112]
5,3.17^[a],Cc1cc2cc(CNC(=O)C3(C)CC(c4ccc5ncc(Br)cc5c4)=NO3)ccc2[nH]1 (centres unmarked) [compound 114]
6,2.92^[a],CC1(C(=O)NCc2ccc3[nH]ccc3c2)CC(c2ccc3ncc(Br)cc3c2)=NO1 (centres unmarked) [compound 116]
7,3.33^[a],CC1(C(=O)NCC2OCCc3ccccc32)CC(c2ccc3ncc(Br)cc3c2)=NO1 (centres unmarked) [compound 117]
8,3.04^[a],CC1(C(=O)NCc2ccc3c(c2)OCCO3)CC(c2ccc3ncc(Br)cc3c2)=NO1 (centres unmarked) [compound 118]
9,3.17^[a],CC1(C(=O)NCc2ccc3c(c2)OCC3)CC(c2ccc3ncc(Br)cc3c2)=NO1 (centres unmarked) [compound 123]
10,1.54^[a],C#Cc1cnc2ccc(C3=NOC(C)(C(=O)NCc4nncn4CC)C3)cc2c1 (centres unmarked) [compound 159]
11,2.75^[a],CC1(C(=O)NCc2ccc3ccccc3n2)CC(c2ccc3ncc(Br)cc3c2)=NO1 (centres unmarked) [compound 165]
12,1.42^[a],C#Cc1cnc2ccc(C3=NOC(C)(C(=O)NCc4ccnc(N5CCCC5)c4)C3)cc2c1 (centres unmarked) [compound 166]
13,3.58^[a],C#Cc1cnc2ccc(C3=NOC(C)(C(=O)NCc4cccc(Cl)c4Cl)C3)cc2c1 (centres unmarked) [compound 172]
14,4.01^[a],CC1(C(=O)NCc2cccc(Cl)c2Cl)CC(c2ccc3ncc(Br)cc3c2)=NO1 (centres unmarked) [compound 174]
15,3.8^[a],C#Cc1cnc2ccc(C3=NOC(C)(C(=O)NCc4ccc(Oc5ccccc5)cc4)C3)cc2c1 (centres unmarked) [compound 175]
16,3.55^[a],C#Cc1cnc2ccc(C3=NOC(C)(C(=O)NCCc4ccc(OC(F)(F)F)cc4)C3)cc2c1 (centres unmarked) [compound 209]
17,3.25^[a],C#Cc1cnc2ccc(C3=NOC(C)(C(=O)NCCc4ccc(Cl)cc4)C3)cc2c1 (centres unmarked) [compound 210]
18,3.96^[a],CC1(C(=O)NCCc2ccc(OC(F)(F)F)cc2)CC(c2ccc3ncc(Br)cc3c2)=NO1 (centres unmarked) [compound 211]
19,3.7^[a],C#Cc1cnc2ccc(C3=NOC(C)(C(=O)NCCc4ccc(Cl)cc4Cl)C3)cc2c1 (centres unmarked) [compound 212]
20,3.48^[a],C#Cc1cnc2ccc(C3=NOC(C)(C(=O)NC4(C#C)CCCCC4)C3)cc2c1 (centres unmarked) [compound 218]
21,3.85^[a],CC1(C(=O)NCc2cccc3ccccc23)CC(c2ccc3ncc(Br)cc3c2)=NO1 (centres unmarked) [compound 224]
22,4.14^[a],CC1(C(=O)NCC[Si](C)(C)C)CC(c2ccc3ncc(Br)cc3c2)=NO1 (centres unmarked) [compound 228]
23,3.65^[a],C#Cc1cnc2ccc(C3=NOC(C)(C(=O)NCC#Cc4ccc(Cl)cc4)C3)cc2c1 (centres unmarked) [compound 229]
24,1.98^[a],C#Cc1cnc2ccc(C3=NOC(C)(C(=O)NC4CCCCNC4=O)C3)cc2c1 (centres unmarked) [compound 230]

# Further lines, the compound ahead of its results:
row,SMILES,log P
1,CCCn1cc(CNC(=O)C2(C(F)(F)F)CC(c3ccc4ncc(Br)cc4c3)=NO2)c(C)n1 (centres unmarked) [compound 107],3.33^[a]
2,CC1(C(=O)NCC2CCCOC2c2ccccc2)CC(c2ccc3ncc(Br)cc3c2)=NO1 (centres unmarked) [compound 113],3.5^[a]
3,CC1(C(=O)NCC2CCC(C(F)(F)F)CC2)CC(c2ccc3ncc(Br)cc3c2)=NO1 (centres unmarked) [compound 119],4.01^[a]
4,CN1C(=O)CCC1CNC(=O)C1(C)CC(c2ccc3ncc(Br)cc3c2)=NO1 (centres unmarked) [compound 124],1.85^[a]
5,CCN1CCCC1CNC(=O)C1(C)CC(c2ccc3ncc(Br)cc3c2)=NO1 (centres unmarked) [compound 126],1.37^[a]
6,CC(C)NC(=O)C1(c2ccccc2)CC(c2ccc3ncc(Br)cc3c2)=NO1 (centres unmarked) [compound 136],3.78^[a]
7,CC(C)NC(=O)C1(CCl)CC(c2ccc3ncc(Br)cc3c2)=NO1 (centres unmarked) [compound 139],3.01^[a]
8,CCn1cc(CNC(=O)C2(C)CC(c3ccc4ncc(-c5cccs5)cc4c3)=NO2)c(C)n1 (centres unmarked) [compound 142],2.63^[a]
9,CCn1cc(CNC(=O)C2(C)CC(c3ccc4ncc([S+](C)[O-])cc4c3)=NO2)c(C)n1 (centres unmarked) [compound 145],1.34^[a]
10,CCn1cc(CNC(=O)C2(C)CC(c3ccc4ncc(S(C)(=O)=O)cc4c3)=NO2)c(C)n1 (centres unmarked) [compound 151],1.6^[a]
11,CCn1cnnc1CNC(=O)C1(C)CC(c2ccc3ncc(Br)cc3c2)=NO1 (centres unmarked) [compound 154],1.72^[a]
12,CC1(C(=O)NCc2ncc(C(F)(F)F)cc2Cl)CC(c2ccc3ncc(Br)cc3c2)=NO1 (centres unmarked) [compound 156],3.89^[a]
13,CC1(C(=O)NCc2ccnc(N3CCCC3)c2)CC(c2ccc3ncc(Br)cc3c2)=NO1 (centres unmarked) [compound 158],1.53^[a]
14,Cn1cncc1CNC(=O)C1(C)CC(c2ccc3ncc(Br)cc3c2)=NO1 (centres unmarked) [compound 203],2.14^[a]
15,CC1(C(=O)NCc2nnco2)CC(c2ccc3ncc(Br)cc3c2)=NO1 (centres unmarked) [compound 204],2.17^[a]
16,CC1(C(=O)NCc2ccccc2Oc2ccccc2)CC(c2ccc3ncc(Br)cc3c2)=NO1 (centres unmarked) [compound 207],4.32^[a]
17,C#Cc1cnc2ccc(C3=NOC(C)(C(=O)NC4CC(C)(C)N(C)C(C)(C)C4)C3)cc2c1 (centres unmarked) [compound 217],1.34^[a]

# Reference: patent US9510598B2, “Nitrogen-containing heterocyclic compounds for plant disease control” (BAYER CROPSCIENCE AG, priority 2012, dated 2016)
